# Assay results taken from US10576064B2, “Spiro[3H-indole-3,2′-pyrrolidin]-2(1H)-one compounds and derivatives as MDM2-P53 inhibitors” (Boehringer Ingelheim International GmbH, priority 2014, dated 2020).
# Biological target: p53-MDM2 interaction (GST-MDM2 protein aa 23-117 / biotinylated p53 wt peptide) (Homo sapiens (Human), UniProt Q00987)
# Assay: MDM2-p53 Inhibition AlphaScreen
# Assay type: biochemical
# Settings: 20 nM GST-MDM2 (aa 23-117), 20 nM biotinylated p53 wt peptide
# Source text: MDM2-p53 Inhibition AlphaScreen
row,SMILES,IC50 [nM]
1,O=C1NCC[C@H]2[C@@H]1[C@H](c1cccc(Cl)c1F)[C@]1(C(=O)Nc3cc(Cl)ccc31)N2CC1CC1 [Compound I-1],86
2,O=C1NCC[C@H]2[C@@H]1[C@H](c1cccc(Cl)c1F)[C@]1(C(=O)Nc3cc(Cl)ccc31)N2CC1CC1 [Compound I-2],112
3,O=C1NCC[C@H]2[C@@H]1[C@H](c1cccc(Cl)c1)[C@]1(C(=O)Nc3cc(Cl)ccc31)N2CC1CC1 [Compound I-3],263
4,CCOc1cccc(CN2[C@H]3CCNC(=O)[C@H]3[C@H](c3cccc(Cl)c3F)[C@]23C(=O)Nc2cc(Cl)ccc23)c1 [Compound I-5],17
5,CCOc1cccc(CN2[C@H]3CCNC(=O)[C@H]3[C@H](c3cccc(Cl)c3)[C@]23C(=O)Nc2cc(Cl)ccc23)c1 [Compound I-7],30
6,CCOc1cccc(CN2[C@H]3CCNC(=O)[C@H]3[C@H](c3cccc(Cl)c3F)[C@]23C(=O)Nc2nc(Cl)ccc23)c1 [Compound I-9],30
7,O=C1NCC[C@H]2[C@@H]1[C@H](c1cc(Br)cc(Cl)c1F)[C@]1(C(=O)Nc3cc(Cl)ccc31)N2CC1CC1 [Compound I-11],462
8,CC1CC1CN1[C@H]2CCNC(=O)[C@H]2[C@H](c2cccc(Cl)c2F)[C@]12C(=O)Nc1cc(Cl)ccc12 (stereo partly shown) [Compound I-13],272
9,CC(C)(C)CN1[C@H]2CCNC(=O)[C@H]2[C@H](c2cccc(Cl)c2F)[C@]12C(=O)Nc1cc(Cl)ccc12 [Compound I-15],152
10,O=C1NCC[C@H]2[C@@H]1[C@H](c1cccc(Cl)c1F)[C@]1(C(=O)Nc3cc(Cl)c(F)cc31)N2CC1CC1 [Compound I-17],324
11,O=C1NCC[C@H]2[C@@H]1[C@H](c1cccc(Cl)c1F)[C@]1(C(=O)Nc3cc(Cl)ccc31)N2CC1CCC1 [Compound I-19],240
12,O=C1NCC[C@H]2[C@@H]1[C@H](c1cccc(Cl)c1F)[C@]1(C(=O)Nc3cc(Br)ccc31)N2CC1CC1 [Compound I-21],64
13,Cc1ccc2c(c1)NC(=O)[C@]21[C@@H](c2cccc(Cl)c2F)[C@@H]2C(=O)NCC[C@@H]2N1CC1CC1 [Compound I-23],290
14,O=C1NCC[C@H]2[C@@H]1[C@H](c1cccc(Cl)c1F)[C@]1(C(=O)Nc3cc(I)ccc31)N2CC1CC1 [Compound I-25],324
15,O=C1OCC[C@H]2[C@@H]1[C@H](c1cccc(Cl)c1F)[C@]1(C(=O)Nc3cc(Cl)ccc31)N2CC1CC1 [Compound I-37],292
16,O=C1NC[C@H]2[C@@H]1[C@H](c1cccc(Cl)c1F)[C@]1(C(=O)Nc3cc(Cl)ccc31)N2CC1CC1 [Compound I-39],32
17,O=C1NC[C@H]2[C@@H]1[C@H](c1cccc(Cl)c1F)[C@]1(C(=O)Nc3cc(Cl)ccc31)N2CC1CC1 [Compound I-40],33
18,CCOc1cccc(CN2[C@H]3CNC(=O)[C@H]3[C@H](c3cccc(Cl)c3F)[C@]23C(=O)Nc2cc(Cl)ccc23)c1 [Compound I-43],8
19,COC(=O)c1ccc(N2CC[C@H]3[C@@H](C2=O)[C@H](c2cccc(Cl)c2F)[C@]2(C(=O)Nc4cc(Cl)ccc42)N3CC2CC2)cc1 [Compound I-63],103
20,COC(=O)c1ccc(N2CC[C@H]3[C@@H](C2=O)[C@H](c2cccc(Cl)c2F)[C@]2(C(=O)Nc4cc(Cl)ccc42)N3CC2CC2C)cc1 (stereo partly shown) [Compound I-69],447
21,CCOc1cccc(CN2[C@H]3CCN(c4ccc(C(=O)OC)cc4)C(=O)[C@H]3[C@H](c3cccc(Cl)c3F)[C@]23C(=O)Nc2cc(Cl)ccc23)c1 [Compound I-71],68
22,O=C1[C@@H]2[C@H](CCN1c1ccc(-c3nnn[nH]3)cc1)N(CC1CC1)[C@@]1(C(=O)Nc3cc(Cl)ccc31)[C@H]2c1cccc(Cl)c1F [Compound I-72],17
23,CC(C)(C)CN1[C@H]2CCN(c3ccc(S(C)(=O)=O)cc3)C(=O)[C@H]2[C@H](c2cccc(Cl)c2F)[C@]12C(=O)Nc1cc(Cl)ccc12 [Compound I-74],342
24,CS(=O)(=O)c1ccc(N2CC[C@H]3[C@@H](C2=O)[C@H](c2cccc(Cl)c2F)[C@]2(C(=O)Nc4cc(Cl)ccc42)N3CC2CC2)cc1 [Compound I-76],42
25,CC1CC1CN1[C@H]2CCN(c3ccc(S(C)(=O)=O)cc3)C(=O)[C@H]2[C@H](c2cccc(Cl)c2F)[C@]12C(=O)Nc1cc(Cl)ccc12 (stereo partly shown) [Compound I-78],120
26,CNS(=O)(=O)c1ccc(N2CC[C@H]3[C@@H](C2=O)[C@H](c2cccc(Cl)c2F)[C@]2(C(=O)Nc4cc(Cl)ccc42)N3CC2CC2)cc1 [Compound I-80],93
27,COC(=O)c1ccc(N2CC[C@H]3[C@@H](C2=O)[C@H](c2cccc(Cl)c2F)[C@]2(C(=O)Nc4cc(Cl)ccc42)N3CC2CC2C)c(OC)c1 (stereo partly shown) [Compound I-82],1020
28,COC(=O)c1ccc(N2CC[C@H]3[C@@H](C2=O)[C@H](c2cccc(Cl)c2F)[C@]2(C(=O)Nc4cc(Cl)ccc42)N3CC2CC2C)c(F)c1 (stereo partly shown) [Compound I-84],1180

row,SMILES,IC50 [nM]
1,N#Cc1ccc(N2CC[C@H]3[C@@H](C2=O)[C@H](c2cccc(Cl)c2F)[C@]2(C(=O)Nc4cc(Cl)ccc42)N3CC2CC2)cc1 [Compound I-86],159
2,COCc1cc(N2CC[C@H]3[C@@H](C2=O)[C@H](c2cccc(Cl)c2F)[C@]2(C(=O)Nc4cc(Cl)ccc42)N3CC2CC2)ccn1 [Compound I-90],124
3,O=C1[C@@H]2[C@H](CCN1c1ccncc1)N(CC1CC1)[C@@]1(C(=O)Nc3cc(Cl)ccc31)[C@H]2c1cccc(Cl)c1F [Compound I-92],193
4,CCOc1cccc(CN2[C@@H]3CCN(c4ccc(C(=O)OC)cc4)C(=O)[C@@H]3[C@@H](c3cccc(Cl)c3F)[C@@]23C(=O)Nc2cc(Cl)ccc23)c1 [Compound I-112],3290
5,COC(=O)c1ccc(N2C[C@H]3[C@@H](C2=O)[C@H](c2cccc(Cl)c2F)[C@]2(C(=O)Nc4cc(Cl)ccc42)N3CC2CC2)cc1 [Compound I-123],38
6,COC(=O)c1ccc(N2C[C@H]3[C@@H](C2=O)[C@H](c2cccc(Cl)c2F)[C@]2(C(=O)Nc4cc(Cl)ccc42)N3CC2CC2)c(OC)c1 [Compound I-125],347
7,O=C(O)c1ccc(N2CC[C@H]3[C@@H](C2=O)[C@H](c2cccc(Cl)c2F)[C@]2(C(=O)Nc4cc(Cl)ccc42)N3CC2CC2)cc1 [Compound I-170],11
8,O=C(O)c1ccc(N2CC[C@H]3[C@@H](C2=O)[C@H](c2cccc(Cl)c2F)[C@]2(C(=O)Nc4cc(Cl)ccc42)N3CC2CC2)cc1 [Compound I-171],4
9,O=C(O)c1ccc(N2CC[C@@H]3[C@H](C2=O)[C@@H](c2cccc(Cl)c2F)[C@@]2(C(=O)Nc4cc(Cl)ccc42)N3CC2CC2)cc1 [Compound I-172],302
10,O=C(O)c1ccc(N2CC[C@H]3[C@@H](C2=O)[C@H](c2cccc(Cl)c2F)[C@]2(C(=O)Nc4cc(Cl)c(F)cc42)N3CC2CC2)cc1 [Compound I-173],29
11,O=C(O)c1cccc(N2CC[C@H]3[C@@H](C2=O)[C@H](c2cccc(Cl)c2F)[C@]2(C(=O)Nc4cc(Cl)ccc42)N3CC2CC2)c1 [Compound I-175],2130
12,O=C(O)c1ccc(N2CC[C@H]3[C@@H](C2=O)[C@H](c2cccc(Cl)c2)[C@]2(C(=O)Nc4cc(Cl)ccc42)N3CC2CC2)cc1 [Compound I-177],16
13,COc1cc(C(=O)O)ccc1N1CC[C@H]2[C@@H](C1=O)[C@H](c1cccc(Cl)c1F)[C@]1(C(=O)Nc3cc(Cl)ccc31)N2CC1CC1 [Compound I-179],71
14,COc1cc(C(=O)O)ccc1N1CC[C@H]2[C@@H](C1=O)[C@H](c1cccc(Cl)c1)[C@]1(C(=O)Nc3cc(Cl)ccc31)N2CC1CC1 [Compound I-181],92
15,O=C(O)c1ccc(N2CC[C@H]3[C@@H](C2=O)[C@H](c2cccc(Cl)c2F)[C@]2(C(=O)Nc4cc(Cl)ccc42)N3CC2CC2)cn1 [Compound I-183],10
16,CCOc1cccc(CN2[C@H]3CCN(c4ccc(C(=O)O)cc4)C(=O)[C@H]3[C@H](c3cccc(Cl)c3F)[C@]23C(=O)Nc2cc(Cl)ccc23)c1 [Compound I-185],3
17,CCOc1cccc(CN2[C@H]3CCN(c4ccc(C(=O)O)cc4)C(=O)[C@H]3[C@H](c3cccc(Cl)c3F)[C@]23C(=O)Nc2cc(Cl)ccc23)c1 [Compound I-186],2
18,CCOc1cccc(CN2[C@H]3CCN(c4ccc(C(=O)O)cc4[N+](=O)[O-])C(=O)[C@H]3[C@H](c3cccc(Cl)c3F)[C@]23C(=O)Nc2cc(Cl)ccc23)c1 [Compound I-188],16
19,CC1CC1CN1[C@H]2CCN(c3ccc(C(=O)O)cc3F)C(=O)[C@H]2[C@H](c2cccc(Cl)c2F)[C@]12C(=O)Nc1cc(Cl)ccc12 (stereo partly shown) [Compound I-190],45
20,O=C(O)c1ccc(N2CC[C@H]3[C@@H](C2=O)[C@H](c2cccc(Cl)c2F)[C@]2(C(=O)Nc4cc(Cl)ccc42)N3CC2CC2)c([N+](=O)[O-])c1 [Compound I-192],40
21,COc1cc(C(=O)O)ccc1N1CC[C@H]2[C@@H](C1=O)[C@H](c1cccc(Cl)c1F)[C@]1(C(=O)Nc3cc(Cl)ccc31)N2CC1CC1C (stereo partly shown) [Compound I-194],114
22,CC1CC1CN1[C@H]2CCN(c3ccc(C(=O)O)cc3)C(=O)[C@H]2[C@H](c2cccc(Cl)c2F)[C@]12C(=O)Nc1cc(Cl)ccc12 (stereo partly shown) [Compound I-196],20
23,O=C(O)c1ccc(N2CC[C@H]3[C@@H](C2=O)[C@H](c2cccc(Cl)c2F)[C@]2(C(=O)Nc4cc(Cl)ccc42)N3CC2CCC2)cc1 [Compound I-198],27
24,COc1cc(C(=O)O)ccc1N1CC[C@H]2[C@@H](C1=O)[C@H](c1cccc(Cl)c1F)[C@]1(C(=O)Nc3cc(Cl)ccc31)N2CC1CCC1 [Compound I-200],134
25,CC(C)(C)CN1[C@H]2CCN(c3ccc(C(=O)O)cc3)C(=O)[C@H]2[C@H](c2cccc(Cl)c2F)[C@]12C(=O)Nc1cc(Cl)ccc12 [Compound I-202],48
26,O=C(O)c1ccc(N2CC[C@H]3[C@@H](C2=O)[C@H](c2cccc(Cl)c2F)[C@]2(C(=O)Nc4cc(Br)ccc42)N3CC2CC2)cc1 [Compound I-204],15
27,Cc1cc(N2CC[C@H]3[C@@H](C2=O)[C@H](c2cccc(Cl)c2F)[C@]2(C(=O)Nc4cc(Cl)ccc42)N3CC2CC2)cc(C)c1C(=O)O [Compound I-206],46
